In one assay the test system is D. immitis microfilariae. Description: Dirofilaria immitis, microfilariae (DiMF) in vitro motility assay. Format: cell-based. As to conditions: for minimal effective concentration: Dirofilaria immitis, 72 h, read-out: DiMF minimally effective dose (MEC); for DiMF minimally effective dose (MEC): decrease in microfilariae motility by subjective visual assessment, observed at 72 hours.

For a further assay, the system named is Haemonchus contortus L3. Description: microbe, parasite or virus in culture. Format: cell-based. As to conditions: for minimal effective concentration: Haemonchus contortus, 96 h, read-out: HcL3 Minimal Effective Concentration (MEC).

Here are results for 23 compounds from patent publication US10570129B2 (Zoetis Services LLC, priority 2015, dated 2020).

Take `O=C(NCc1ccnc(F)c1)n1c2c(c3cc(Cl)ccc31)CN(C/C=C/c1ccc(Cl)c(F)c1)CC2` [Example 254, (E)-8-chloro-2-(3-(4-chloro-3-fluorophenyl)allyl)-N-((2-fluoropyridin-4-yl)methyl)-1,2,3,4-tetrahydro-5H-pyrido[4,3-b]indole-5-carboxamide]: the results for the minimal effective concentration with D. immitis microfilariae and with Haemonchus contortus L3 were 100 µM and 3.3 µM, respectively.

As for `CCOc1ccc2c(c1)c1c(n2C(=O)NCc2ccnc(Cl)c2)CCN(C/C=C/c2ccc(F)cc2)C1` [Example 514, (E)-N-((2-chloropyridin-4-yl)methyl)-8-ethoxy-2-(3-(4-fluorophenyl)allyl)-1,2,3,4-tetrahydro-5H-pyrido[4,3-b]indole-5-carboxamide], the minimal effective concentration with D. immitis microfilariae and in the assay with Haemonchus contortus L3 was 5.7 µM each time.

“N-((2-chloropyridin-4-yl)methyl)-2-((6-fluoronaphthalen-2-yl)methyl)-7-(trifluoromethoxy)-1,2,3,4-tetrahydro-5H-pyrido[4,3-b]indole-5-carboxamide [Example 366]”: in the assay with D. immitis microfilariae, the “DiMF minimally effective dose (MEC)” value was found to be 2.4 µM. Moreover, the “HcL3 Minimal Effective Concentration (MEC)” value in the assay on Haemonchus contortus L3 was greater than 100 µM.

Turning to `COc1ccc(/C=C/CN2CCc3c(c4ccc(Cl)cc4n3C(=O)NCc3ccnc(Cl)c3)C2)cc1` [Example 219, (E)-7-chloro-N-((2-chloropyridin-4-yl)methyl)-2-(3-(4-methoxyphenyl)allyl)-1,2,3,4-tetrahydro-5H-pyrido[4,3-b]indole-5-carboxamide], the minimal effective concentration worked out at 3.3 µM in the assay with D. immitis microfilariae and 0.5 µM with Haemonchus contortus L3.

In the case of `N#Cc1ccc(/C=C/CN2CCc3c(c4c(Cl)c(F)ccc4n3C(=O)NCc3ccnc(Cl)c3)C2)cc1` [Example 303, (E)-9-chloro-N-((2-chloropyridin-4-yl)methyl)-2-(3-(4-cyanophenyl)allyl)-8-fluoro-1,2,3,4-tetrahydro-5H-pyrido[4,3-b]indole-5-carboxamide], the minimal effective concentration stood at 57.4 µM with D. immitis microfilariae and 1 µM in the assay with Haemonchus contortus L3.

For the compound `O=C(NCc1ccnc(Cl)c1)n1c2c(c3cc(Cl)c(Cl)cc31)CN(C/C=C/c1ccc(C(F)(F)F)cc1)CC2` [Example 285, (E)-7,8-dichloro-N-((2-chloropyridin-4-yl)methyl)-2-(3-(4-(trifluoromethyl)-phenyl)allyl)-1,2,3,4-tetrahydro-5H-pyrido[4,3-b]indole-5-carboxamide], the minimal effective concentration in the assay on D. immitis microfilariae is 10 µM; in the assay with Haemonchus contortus L3 it was greater than 100 µM.

On to `N#Cc1ccc2c3c(n(C(=O)NCc4ccnc(Cl)c4)c2c1)CCN(C/C=C/c1ccc(F)c(F)c1)C3` [Example 28, (E)-N-((2-chloropyridin-4-yl)methyl)-7-cyano-2-(3-(3,4-difluorophenyl)allyl)-1,2,3,4-tetrahydro-5H-pyrido[4,3-b]indole-5-carboxamide], for which the minimal effective concentration is 4.4 µM with D. immitis microfilariae and 1.8 µM with Haemonchus contortus L3.

In the case of `O=C(NCc1ccnc(F)c1)n1c2c(c3c(Cl)c(Cl)ccc31)CN(C/C=C/c1ccc(Cl)cc1)CC2` [Example 293, (E)-8,9-dichloro-2-(3-(4-chlorophenyl)allyl)-N-((2-fluoropyridin-4-yl)methyl)-1,2,3,4-tetrahydro-5H-pyrido[4,3-b]indole-5-carboxamide], the minimal effective concentration in the assay with D. immitis microfilariae worked out at 5.7 µM; with Haemonchus contortus L3, 3.3 µM.

`O=C(NCc1ccnc(Cl)c1)n1c2c(c3cc(OC(F)(F)F)c(Cl)cc31)CN(C/C=C/c1ccc(Cl)cc1)CC2` [Example 496, (E)-7-chloro-2-(3-(4-chlorophenyl)allyl)-N-((2-chloropyridin-4-yl)methyl)-8-(trifluoromethoxy)-1,2,3,4-tetrahydro-5H-pyrido[4,3-b]indole-5-carboxamide]: the minimal effective concentration was 5.7 µM in the assay with D. immitis microfilariae and 1 µM in the assay on Haemonchus contortus L3.

`Cc1ccc2c(c1)c1c(n2C(=O)NCc2ccnc(Cl)c2)CCN(C/C=C/c2ccc(Cl)c(Cl)c2)C1` [Example 432, (E)-N-((2-chloropyridin-4-yl)methyl)-2-(3-(3,4-dichlorophenyl)allyl)-8-methyl-1,2,3,4-tetrahydro-5H-pyrido[4,3-b]indole-5-carboxamide]: the minimal effective concentration in the assay on D. immitis microfilariae came out at 57.4 µM; in the assay with Haemonchus contortus L3, 1 µM.

For `O=C(NCc1ccnc(Cl)c1)n1c2c(c3ccc(C(F)(F)F)cc31)CN(C/C=C/c1ccc(F)cc1)CC2` [Example 160, (E)-N-((2-chloropyridin-4-yl)methyl)-2-(3-(4-fluorophenyl)allyl)-7-(trifluoromethyl)-1,2,3,4-tetrahydro-5H-pyrido[4,3-b]indole-5-carboxamide], the values for the minimal effective concentration with D. immitis microfilariae and in the assay on Haemonchus contortus L3 were 10 µM and 1.8 µM, respectively.

Regarding `O=C(NCc1ccnc(Cl)c1)n1c2c(c3cccc(Cl)c31)CN(C/C=C/c1ccc(C(F)(F)F)cc1)CC2` [Example 272, (E)-6-chloro-N-((2-chloropyridin-4-yl)methyl)-2-(3-(4-(trifluoromethyl)-phenyl)allyl)-1,2,3,4-tetrahydro-5H-pyrido[4,3-b]indole-5-carboxamide], the minimal effective concentration in the assay on D. immitis microfilariae is 10 µM; with Haemonchus contortus L3, greater than 100 µM.

As to `O=C(NCc1ccnc(Cl)c1)n1c2c(c3cc(N4CCCSC4)ccc31)CN(C/C=C/c1ccc(Cl)c(Cl)c1)CC2` [Example 511, (E)-N-((2-chloropyridin-4-yl)methyl)-2-(3-(3,4-dichlorophenyl)allyl)-8-(1,3-thiazinan-3-yl)-1,2,3,4-tetrahydro-5H-pyrido[4,3-b]indole-5-carboxamide], the minimal effective concentration in the assay with D. immitis microfilariae and in the assay with Haemonchus contortus L3 was greater than 100 µM in each case.

For `O=C(NCc1ccnc(F)c1)n1c2c(c3cc(OC(F)(F)F)ccc31)CN(C/C=C/c1ccc(Cl)c(F)c1)CC2` [Example 401, (E)-2-(3-(4-chloro-3-fluorophenyl)allyl)-N-((2-fluoropyridin-4-yl)methyl)-8-(trifluoromethoxy)-1,2,3,4-tetrahydro-5H-pyrido[4,3-b]indole-5-carboxamide], the minimal effective concentration turned out to be 18.2 µM in the assay on D. immitis microfilariae and 0.5 µM in the assay on Haemonchus contortus L3.

In the case of `O=C(NCc1ccnc(Cl)c1)n1c2c(c3c(F)cc(C(F)(F)F)cc31)CN(C/C=C/c1ccc(Cl)cc1)CC2` [Example 323, (E)-2-(3-(4-chlorophenyl)allyl)-N-((2-chloropyridin-4-yl)methyl)-9-fluoro-7-(trifluoromethyl)-1,2,3,4-tetrahydro-5H-pyrido[4,3-b]indole-5-carboxamide], the minimal effective concentration is 7.6 µM with D. immitis microfilariae and greater than 100 µM with Haemonchus contortus L3.

As to “(E)-N-((2-chloropyridin-4-yl)methyl)-2-(3-(3,4-dichlorophenyl)allyl)-9-methyl-1,2,3,4-tetrahydro-5H-pyrido[4,3-b]indole-5-carboxamide [Example 148]”, the “DiMF minimally effective dose (MEC)” value in the assay on D. immitis microfilariae is 10.0 µM. Moreover, the “HcL3 Minimal Effective Concentration (MEC)” value with Haemonchus contortus L3 turned out to be 5.7 µM.

Consider `N#Cc1ccc2c(c1)c1c(n2C(=O)NCc2ccnc(Cl)c2)CCN(C/C=C/c2cc(F)c(F)c(F)c2)C1` [Example 89, (E)-N-((2-chloropyridin-4-yl)methyl)-8-cyano-2-(3-(3,4,5-trifluorophenyl)allyl)-1,2,3,4-tetrahydro-5H-pyrido[4,3-b]indole-5-carboxamide], for which the minimal effective concentration in the assay with D. immitis microfilariae amounted to 1 µM; with Haemonchus contortus L3, 0.1 µM.

Turning to `O=C(NCc1ccnc(F)c1)n1c2c(c3cc(C(F)(F)F)ccc31)CN(C/C=C/c1ccc(Cl)c(Cl)c1)CC2` [Example 422, (E)-2-(3-(3,4-dichlorophenyl)allyl)-N-((2-fluoropyridin-4-yl)methyl)-8-(trifluoromethyl)-1,2,3,4-tetrahydro-5H-pyrido[4,3-b]indole-5-carboxamide], the figures for the minimal effective concentration with D. immitis microfilariae and in the assay with Haemonchus contortus L3 were 18.2 µM and 10 µM, respectively.

As to `N#Cc1ccc2c(c1)c1c(n2C(=O)NCc2ccnc(Cl)c2)CCN(C/C=C/c2ccc(F)c(C#N)c2)C1` [Example 98, (E)-N-((2-chloropyridin-4-yl)methyl)-8-cyano-2-(3-(3-cyano-4-fluorophenyl)allyl)-1,2,3,4-tetrahydro-5H-pyrido[4,3-b]indole-5-carboxamide], the results for the minimal effective concentration in the assay on D. immitis microfilariae and in the assay on Haemonchus contortus L3 were greater than 100 µM and 0.3 µM, respectively.

`COc1cc2c(cc1Br)c1c(n2C(=O)NCc2ccnc(Cl)c2)CCN(C/C=C/c2ccc(Cl)cc2)C1` [Example 195, (E)-8-bromo-2-(3-(4-chlorophenyl)allyl)-N-((2-chloropyridin-4-yl)methyl)-7-methoxy-1,2,3,4-tetrahydro-5H-pyrido[4,3-b]indole-5-carboxamide]: the minimal effective concentration is 5.7 µM with D. immitis microfilariae and 0.5 µM in the assay on Haemonchus contortus L3.

Regarding `O=C(NCc1ccnc(Cl)c1)n1c2c(c3cc(C(F)(F)F)ccc31)CN(C/C=C/c1ccc(OC(F)(F)F)cc1)CC2` [Example 335, (E)-N-((2-chloropyridin-4-yl)methyl)-2-(3-(4-(trifluoromethoxy)phenyl)allyl)-8-(trifluoromethyl)-1,2,3,4-tetrahydro-5H-pyrido[4,3-b]indole-5-carboxamide], the minimal effective concentration turned out to be 24 µM in the assay on D. immitis microfilariae and 10 µM in the assay on Haemonchus contortus L3.

As to `O=C(NCc1ccnc(Cl)c1)n1c2c(c3c(C(F)(F)F)cc(F)cc31)CN(C/C=C/c1ccc(Cl)cc1)CC2` [Example 322, (E)-2-(3-(4-chlorophenyl)allyl)-N-((2-chloropyridin-4-yl)methyl)-7-fluoro-9-(trifluoromethyl)-1,2,3,4-tetrahydro-5H-pyrido[4,3-b]indole-5-carboxamide], the minimal effective concentration was 10 µM in the assay with D. immitis microfilariae and 5.7 µM in the assay on Haemonchus contortus L3.

As to `O=C(NCc1ccnc(Cl)c1)n1c2c(c3cc(F)ccc31)CN(C/C=C/c1ccc(Cl)cc1)CC2` [Example 169, (E)-2-(3-(4-chlorophenyl)allyl)-N-((2-chloropyridin-4-yl)methyl)-8-fluoro-1,2,3,4-tetrahydro-5H-pyrido[4,3-b]indole-5-carboxamide], the figures for the minimal effective concentration in the assay with D. immitis microfilariae and in the assay with Haemonchus contortus L3 were 18.2 µM and 0.1 µM, respectively.
